Experiment [1] concerns Vaccinia Virus, Elstree strain, ATCC VR1549. The format is cell-based.
For experiment [2], the system named is Bovine coronavirus. The experiment is described as follows: Virucidal activity test according to DIN EN 14476:2019-10, Bovine coronavirus. The format is cell-based, Bovine coronavirus (Betacoronavirus 1). The following applies: for inactivation of Bovine coronavirus (in words): at the tested concentrations (Example 4); for Log10 reduction factor(s) incl. 95% confidence interval(s) against Bovine coronavirus: conc. 1% (DDAC 0.015%, Braunol povidone iodine 0.05%), initial results. Here is the method:
Analysis was performed by Henkel (Dusseldorf) according to the European norm DIN EN 14476:2019-10.
The following test for virucidal activity of the different test substances were performed by Henkel (Dusseldorf) according to the European norm DIN EN 14476:2019-10. The experimental conditions were identical to those in Example 3 but with a Bovine coronavirus instead of Vaccinia virus.

Experiment [3] deals with reverse transcriptase (RT). The experiment can be described thus: (RT-)qPCR with test substance added, RT reaction (IC RNA template). Format: biochemical. The following applies: for maximal non-inhibiting concentration, RT reaction: final concentration in (RT-)PCR, QuantiNova Pathogen Mix, 40 cycles, compared to water control (Examples 1, 2). Background: Quantitative PCR measures a nucleic acid by following its amplification.

In experiment [4] the target is T1, Taq polymerase (Thermus aquaticus, UniProt P19821).
T1 construct: purchased QIAGEN (QuantiNova Pathogen + IC Kit; QIAprep& Viral RNA UM Kit)
T1 sequence (P19821 whole entry): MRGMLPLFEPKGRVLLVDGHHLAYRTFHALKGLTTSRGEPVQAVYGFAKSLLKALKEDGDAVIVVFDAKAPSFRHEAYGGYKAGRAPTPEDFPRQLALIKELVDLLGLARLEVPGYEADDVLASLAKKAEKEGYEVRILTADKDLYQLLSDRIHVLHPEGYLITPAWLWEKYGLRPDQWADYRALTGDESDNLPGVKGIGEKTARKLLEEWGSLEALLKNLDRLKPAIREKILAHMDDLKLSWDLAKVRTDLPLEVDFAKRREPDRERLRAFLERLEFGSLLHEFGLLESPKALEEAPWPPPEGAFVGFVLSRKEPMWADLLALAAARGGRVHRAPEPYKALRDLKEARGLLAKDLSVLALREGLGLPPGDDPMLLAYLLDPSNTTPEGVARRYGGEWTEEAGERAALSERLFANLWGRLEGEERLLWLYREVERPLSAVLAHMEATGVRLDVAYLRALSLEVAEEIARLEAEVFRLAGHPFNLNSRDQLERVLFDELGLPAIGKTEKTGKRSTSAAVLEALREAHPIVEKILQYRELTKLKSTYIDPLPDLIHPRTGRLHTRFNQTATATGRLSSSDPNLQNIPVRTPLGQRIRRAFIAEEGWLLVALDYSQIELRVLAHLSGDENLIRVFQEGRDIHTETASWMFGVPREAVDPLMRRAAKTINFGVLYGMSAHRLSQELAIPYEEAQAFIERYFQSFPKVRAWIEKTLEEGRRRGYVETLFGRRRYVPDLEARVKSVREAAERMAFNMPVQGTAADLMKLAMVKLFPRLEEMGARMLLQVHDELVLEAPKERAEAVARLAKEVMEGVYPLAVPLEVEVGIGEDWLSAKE
The experiment can be described thus: (RT-)qPCR with test substance added, DNA template. The format is biochemical. The following applies: for maximal non-inhibiting concentration, Taq polymerase: final concentration in (RT-)PCR, QuantiNova Pathogen Mix, 40 cycles, compared to water control (Examples 1, 2).

Experiment [5] deals with (RT-)PCR reaction. The experiment can be described thus: (RT-)PCR compatibility of test substance, reaction as a whole. The format is biochemical.
Experiment [6] has as its system N1 and N2 genes of SARS-CoV-2. Format: biochemical.
Experiment [7] concerns DNA and/or RNA viruses. The experiment can be described thus: Virucidal suspension tests, summary statement. The following applies: summary of the examples; against DNA and/or RNA viruses. The format is cell-based.
Experiment [8] deals with in vitro transcribed SARS-CoV-2 genes N1 and N2. Format: biochemical.
The mark [9] stands for this setting: Example 8, FIG. 8, substance alone, increasing concentrations, QIAprep&amp reaction mix without Extraction Buffer step.
The mark [10] stands for this setting: Example 7, FIG. 7, without Tween20.
[11] abbreviates: Example 6, FIG. 6A, Tween20 at very high concentrations, Tween60 and Brij58 at much lower concentrations.

“And” between values parts separate entries of the source, which are not always exact repeats. Identical values can stand only once.

Data on eight molecules can be found in patent US20230374575A1, “METHOD FOR VIRUS DETECTION” (priority 2020, published 2023).

Turning to `CCCCCCCCCC[N+](C)(C)CCCCCCCCCC.[Cl-]` [DDAC, Didecyldimethylammonium chloride], the “reduction of the virus titer” value is given as 4 log10 grades in experiment [1] and “about 4 log10” in experiment [7]. The “virucidal activity against Vaccinia virus (in words)” value (“virucidal activity” for short) in experiment [1] is recorded as “strong virucidal activity”. The “inactivation of Bovine coronavirus (in words)” value in experiment [2] was “effectively inactivated”. The “Log10 reduction factor(s) incl. 95% confidence interval(s) against Bovine coronavirus” value is on record as above 5.13 ± 0.25 Log10 in experiment [2] (contact time 15 min) and above 4.88 ± 0.25 Log10 in experiment [2] (contact time 60 min). Besides, the “maximal non-inhibiting concentration, RT reaction” value in experiment [3] is recorded as at most 0.005%. Further, the “maximal non-inhibiting concentration, Taq polymerase” value in experiment [4] is on record as at most 0.005%. In experiment [5] (setting [9]), the “inhibition of the (RT-)PCR (in words)” value is reported as “significant inhibition”. In addition, in experiment [6], the “inhibition of the (RT-)PCR by substance in transport/storage medium (in words)” value is on record as “no inhibition”.

Regarding `CCCCCCCCCCCC[N+](C)(C)[O-]` [LDAO, Lauryldimethylamin-N-oxide (N,N-Dimethyldodecylamine N-oxide)], the “inhibition of the RT reaction (in words)” value in experiment [3] (LDAO at 0.035%, Ecosurf EH-9 at all tested concentrations (0.035-0.7%), compared to water control) was “slight but acceptable inhibition”. In experiment [3], the “maximal non-inhibiting concentration, RT reaction” value was determined as 0.035%. In addition, the “maximal non-inhibiting concentration, Taq polymerase” value in experiment [4] is reported as 0.035%.

Regarding `CCCCCCCCCCCCOS(=O)(=O)[O-].[Na+]` [SDS, Sodium dodecyl sulfate], the “concentration from which Ct-values increase, reverse transcriptase” value in experiment [3] (setting [10]) is at least 0.03125%. For the same molecule, the “concentration from which Ct-values increase, Taq polymerase” value in experiment [4] (setting [10]) is given as at least 0.125%. Further, the “inhibition of the (RT-)PCR (in words)” value in experiment [5] (setting [9]) is recorded as “significant inhibition”.

For `O=C(O)CCP(CCC(=O)O)CCC(=O)O` [TCEP, Tris-(2-carboxyethyl)-phosphin], in experiment [8], the “concentration at which Ct-values increase again” value is at least 2 mM, the “concentration that neutralizes the inhibitory effect of 0.5% povidone iodine in RT-PCR” value worked out at 5 mM and the “decrease of the Ct-value” is given as “about 2”.

On to `CCCCCCCCCCCC(=O)OCCOCCOCCOCCOCCOCCOCCOCCOCCOCCOCCOCCOCCOCCOCCOCCOCCOCCOCCOCCOCC(OCCOCCOCCOCCOCCOCCOCCOCCOCCOCCOCCOCCOCCOCCOCCOCCOCCOCCOCCOCCO)C1OCC(OCCOCCOCCOCCOCCOCCOCCOCCOCCOCCOCCOCCOCCOCCOCCOCCOCCOCCOCCOCCO)C1OCCOCCOCCOCCOCCOCCOCCOCCOCCOCCOCCOCCOCCOCCOCCOCCOCCOCCOCCOCCO` (centres unmarked) [Tween20, polyoxyethylene (20) sorbitan monolaurate], for which, in experiment [1], the “log10 reduction factor(s) incl. 95% confidence interval(s) against Vaccinia Virus, Elstree strain, ATCC VR1549, with clean conditions” value is 2.00 ± 0.54 log10 and 1.88 ± 0.41 log10; the “virucidal activity” value is “least reduction of the virus titer”. The “counteracting effect on SDS inhibition of the reverse transcription (in words)” value in experiment [3] (3% and 5% Tween20 in the PCR, depending on the Tween20 concentration) is listed as “significantly reduced”. The “maximal non-inhibiting concentration, RT reaction” value in experiment [3] is on record as at most 0.35%. Further, the “counteracting effect on SDS inhibition of the Taq polymerase (in words)” value in experiment [4] (3% and 5% Tween20 in the PCR, even at the highest concentrations of SDS tested) is “reactivates the activity”. Besides, in experiment [4], the “maximal non-inhibiting concentration, Taq polymerase” value was at most 0.35%. Besides, in experiment [5] (0.7% final concentration in (RT-)PCR), the “enzyme inhibition in (RT-)PCR (in words)” value is “some inhibition”. Further, in experiment [5] (setting [11]), the “inhibition of the (RT-)PCR (in words)” value was “only a moderate inhibition”.

“polyoxyethylene (20) sorbitan monostearate [Tween60]”: the “inhibition of the (RT-)PCR (in words)” value in experiment [5] (setting [11]) is recorded as “no PCR inhibition at all”.

“polyoxyethylene(20) cetyl ether [Brij58]”: in experiment [5] (setting [11]), the “inhibition of the (RT-)PCR (in words)” value is given as “no PCR inhibition at all”.

With povidone iodine, the “reduction of the virus titer” value in experiment [1] is recorded as 4 log10 grades; in experiment [7], “about 4 log10”. The “virucidal activity” value in experiment [1] was “strong virucidal activity”. In experiment [2], the “inactivation of Bovine coronavirus (in words)” value was “effectively inactivated”. Also, the “Log10 reduction factor(s) incl. 95% confidence interval(s) against Bovine coronavirus” value in experiment [2] (contact time 15 min) is given as above 6.13 ± 0.25 Log10; in experiment [2] (contact time 60 min), above 5.88 ± 0.25 Log10. The “maximal non-inhibiting concentration, RT reaction” value in experiment [3] is at most 0.0175%. For the same molecule, the “maximal non-inhibiting concentration, Taq polymerase” value in experiment [4] is reported as at most 0.0175%. In addition, the “inhibition of the (RT-)PCR (in words)” value in experiment [8] is “significant inhibition”.
